Experimental data from patent US20070238731A1, “Dna-Pk Inhibitors” (KUDOS PHARMACEUTICALS LIMITED, priority 2004, published 2007).
Values belong to the molecule of their own block, whether it stands above or below them.

Tests used:
[1] = test system: HeLa cells; assay: Survival Enhancement Ratio (clonogenic survival assay after 2 Gray irradiation); format: cell-based; details: inhibitor 100 nM
[2] = target: PI 3-kinase; details: stated to be the same as for DNA-PK; cited from earlier work
[3] = target: DNA-PK (Homo sapiens, UniProt P78527); details: read-out: IC50 towards DNA-PK; cited from earlier work
[4] = test system: cells; details: cited from earlier work

Compound: O=c1cc(N2CCOCC2)oc2c(-c3cccc4c3sc3ccccc34)cccc12
Survival Enhancement Ratio (SER) [1]: 1.3

melting point: 148 °C
Compound: O=C(CCNCC1CCCO1)Nc1ccc(-c2cccc3c(=O)cc(N4CCOCC4)oc23)c2sc3ccccc3c12 (centres unmarked) [Compound 53]

Compound: O=c1cc(N2CCOCC2)oc2c(-c3ccccc3)cccc12 [LY294002]
IC50 [2]: ~1 µM
IC50 [3]: ~1 µM
sensitisation of cells to the effects of IR [4]: weakly sensitise cells to the effects of IR
